The conditions of data set [1]: the molecule shown is the open-chain precursor.
The conditions of data set [2]: the molecule shown is the open-chain precursor. The source holds these as a separate data set.
For data set [3] the following is noted: the molecule shown is the open-chain precursor, 3 steps.
In a further data set the target is human C5aR1 (Homo sapiens, UniProt P21730). The data set is described as follows: cell-based. The following applies: SEM.

Where two headings read alike, the source gives them in different places. Square brackets hold non-standard residues; d marks the D form. Peptide text beside a SMILES is read from it. Abu = CC[C@H](N)C(=O)O

Sequence of human C5aR1 (P21730 whole entry): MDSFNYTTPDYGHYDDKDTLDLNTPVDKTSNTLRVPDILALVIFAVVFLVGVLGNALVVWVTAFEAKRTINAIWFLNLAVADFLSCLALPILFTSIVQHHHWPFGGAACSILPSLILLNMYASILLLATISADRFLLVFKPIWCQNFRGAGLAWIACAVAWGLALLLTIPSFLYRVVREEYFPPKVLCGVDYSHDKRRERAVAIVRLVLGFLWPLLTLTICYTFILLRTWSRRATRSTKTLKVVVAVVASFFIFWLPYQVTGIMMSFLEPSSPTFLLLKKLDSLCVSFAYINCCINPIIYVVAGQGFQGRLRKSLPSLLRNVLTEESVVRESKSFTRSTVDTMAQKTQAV

As to “H-VCGETCVGGTCNTPGCTCSWPVCT-OH (6 free Cys)”, the ring closure, conversion by HPLC (% (HPLC peak area)) in data set [1] was 23.4; in data set [2], 15.4. Consider “H-GCYFQNCPRGVCGQTCVGGTCNTPGCTCSWPVCT-OH (epitope Cys2-Cys7 disulfide; scaffold I-IV, II-V, III-VI)”, for which the ring closure, yield over several steps in data set [3] (102-membered ring) is 1.7%. As to “H-RNGLPVCGETCVGGTCNTPGCTCSWPVCT-OH (disulfides I-IV, II-V, III-VI)”, in data set [3] (87-membered ring), the ring closure, yield over several steps came to 10.6%. Take “H-TCNTPGCTCSWPVCTRNGLPVCGQTCV-OH (6 free Cys)”: the ring closure, conversion by HPLC (% (HPLC peak area)) came out at 8.1 in data set [1] and 3.7 in data set [2]. The like results for “H-GCTCSWPVCTRNGLPVCGQTCVGGTCN-OH (6 free Cys)” were, in that order, 9.5 and 2.6.

In data set [3] (102-membered ring), “H-GCYIQNCPLGVCGQTCVGGTCNTPGCTCSWPVCT-OH (epitope Cys2-Cys7 disulfide; scaffold I-IV, II-V, III-VI)” came in with a ring closure, yield over several steps of 10.9%. Take “cyclo-(CGQTCVGGTCNTPGCTCSWPVCTRNGLPV) (6 free Cys)”: the ring closure, conversion by HPLC (% (HPLC peak area)) turned out to be 26.1 in data set [1] and 23.5 in data set [2].

For the molecule `CC(C)CC(NCCCC[C@@H]1NC(=O)[C@@H](Cc2c[nH]c3ccccc23)NC(=O)[C@H](Cc2ccccc2)NC(=O)[C@@H](NC(=O)[C@H](N)Cc2ccccc2)CSSC[C@@H](C(=O)N[C@H](C(=O)N[C@H](C(=O)N[C@H]2CSSC[C@@H]3NC(=O)CNC(=O)[C@@H]4CCCN4C(=O)[C@H]([C@@H](C)O)NC(=O)[C@H](CC(N)=O)NC(=O)[C@@H]4CSSC[C@@H](C(=O)N[C@H](C(=O)O)[C@@H](C)O)NC(=O)[C@H](C(C)C)NC(=O)[C@@H]5CCCN5C(=O)[C@H](Cc5c[nH]c6ccccc56)NC(=O)[C@H](CO)NC(=O)[C@H](CSSC[C@H](NC(=O)[C@H]([C@@H](C)O)NC(=O)[C@H](CCC(N)=O)NC(=O)CNC2=O)C(=O)N[C@@H](C(C)C)C(=O)NCC(=O)NCC(=O)N[C@@H]([C@@H](C)O)C(=O)N4)NC(=O)[C@H]([C@@H](C)O)NC3=O)C(C)C)[C@@H](C)O)NC(=O)[C@H]([C@@H](C)O)NC1=O)=C1C(=O)CC(C)(C)CC1=O`, the ring closure, yield over several steps in data set [3] (96-membered ring) turned out to be 16.1%. Molecule `CC(C)CC(NCCCC[C@H](NC(=O)[C@@H](N)Cc1ccccc1)C(=O)N1CCC[C@H]1C(=O)N[C@@H](CC(C)C)C(=O)N[C@@H](C)C(=O)N[C@@H](C)C(=O)N[C@H](C)C(=O)N[C@@H](CCCNC(=N)N)C(=O)N[C@H](C(=O)N[C@H]1CSSC[C@@H]2NC(=O)CNC(=O)[C@@H]3CCCN3C(=O)[C@H]([C@@H](C)O)NC(=O)[C@H](CC(N)=O)NC(=O)[C@@H]3CSSC[C@@H](C(=O)N[C@H](C(=O)O)[C@@H](C)O)NC(=O)[C@H](C(C)C)NC(=O)[C@@H]4CCCN4C(=O)[C@H](Cc4c[nH]c5ccccc45)NC(=O)[C@H](CO)NC(=O)[C@H](CSSC[C@H](NC(=O)[C@H]([C@@H](C)O)NC(=O)[C@H](CCC(N)=O)NC(=O)CNC1=O)C(=O)N[C@@H](C(C)C)C(=O)NCC(=O)NCC(=O)N[C@@H]([C@@H](C)O)C(=O)N3)NC(=O)[C@H]([C@@H](C)O)NC2=O)C(C)C)=C1C(=O)CC(C)(C)CC1=O` gave a ring closure, yield over several steps in data set [3] (96-membered ring) of 22%.

For the molecule `CC[C@H](NC(=O)[C@H](C)NC(=O)[C@H](CC(C)C)NC(=O)[C@@H]1CCCN1C(=O)[C@H](CCCCNC(CC(C)C)=C1C(=O)CC(C)(C)CC1=O)NC(=O)[C@@H](N)Cc1ccccc1)C(=O)N[C@H](C)C(=O)N[C@@H](CCCNC(=N)N)C(=O)N[C@H](C(=O)N[C@H]1CSSC[C@@H]2NC(=O)CNC(=O)[C@@H]3CCCN3C(=O)[C@H]([C@@H](C)O)NC(=O)[C@H](CC(N)=O)NC(=O)[C@@H]3CSSC[C@@H](C(=O)N[C@H](C(=O)O)[C@@H](C)O)NC(=O)[C@H](C(C)C)NC(=O)[C@@H]4CCCN4C(=O)[C@H](Cc4c[nH]c5ccccc45)NC(=O)[C@H](CO)NC(=O)[C@H](CSSC[C@H](NC(=O)[C@H]([C@@H](C)O)NC(=O)[C@H](CCC(N)=O)NC(=O)CNC1=O)C(=O)N[C@@H](C(C)C)C(=O)NCC(=O)NCC(=O)N[C@@H]([C@@H](C)O)C(=O)N3)NC(=O)[C@H]([C@@H](C)O)NC2=O)C(C)C`, in data set [3] (96-membered ring), the ring closure, yield over several steps was 1.1%. For the molecule “H-VCGQTCVGGTCNTPGCTCSWPVCT-OH (6 free Cys)”, the ring closure, conversion by HPLC (% (HPLC peak area)) in data set [1] came to 16.1; in data set [2], 9.4. The like results for “H-VCTRNGLPVCGQTCVGGTCNTPGCTCS-OH (6 free Cys)” were, in that order, 30.5 and 27.

On to “H-VCGATCVGGTCNTPGCTCSWPVCT-OH (6 free Cys)”, for which the ring closure, conversion by HPLC (% (HPLC peak area)) in data set [1] was determined as 4.6; in data set [2], 3.8. One may read the EC50 as the concentration at which the effect is half-maximal. Regarding `CC[C@H](NC(=O)[C@H](C)NC(=O)[C@H](CC(C)C)NC(=O)[C@@H]1CCCN1C(=O)[C@H](CCCCN)NC(=O)[C@@H](N)Cc1ccccc1)C(=O)N[C@H](C)C(=O)N[C@@H](CCCNC(=N)N)C(=O)O` [BM221] (H-FKPLA[Abu][dA]R-OH), the EC50 at human C5aR1 was found to be 2.8 ± 0.9 nM. In data set [3] (105-membered ring), `CC[C@H](C)[C@@H]1NC(=O)[C@@H]2CCCN2C(=O)[C@@H]2CCCN2C(=O)[C@H]([C@@H](C)CC)NC(=O)[C@H](CO)NC(=O)[C@H](CCCCNC(CC(C)C)=C2C(=O)CC(C)(C)CC2=O)NC(=O)[C@H]([C@@H](C)O)NC(=O)[C@@H](NC(=O)CN)CSSC[C@@H](C(=O)NCC(=O)N[C@H](C(=O)N[C@H]2CSSC[C@@H]3NC(=O)CNC(=O)[C@@H]4CCCN4C(=O)[C@H]([C@@H](C)O)NC(=O)[C@H](CC(N)=O)NC(=O)[C@@H]4CSSC[C@@H](C(=O)N[C@H](C(=O)O)[C@@H](C)O)NC(=O)[C@H](C(C)C)NC(=O)[C@@H]5CCCN5C(=O)[C@H](Cc5c[nH]c6ccccc56)NC(=O)[C@H](CO)NC(=O)[C@H](CSSC[C@H](NC(=O)[C@H]([C@@H](C)O)NC(=O)[C@H](CCC(N)=O)NC(=O)CNC2=O)C(=O)N[C@@H](C(C)C)C(=O)NCC(=O)NCC(=O)N[C@@H]([C@@H](C)O)C(=O)N4)NC(=O)[C@H]([C@@H](C)O)NC3=O)C(C)C)NC1=O` yielded a ring closure, yield over several steps of 18.7%. In data set [3] (120-membered ring), `CC[C@H](C)[C@H](NC(=O)[C@H](CCCNC(=N)N)NC(=O)[C@H](CCCNC(=N)N)NC(=O)[C@H](CC(C)C)NC(=O)[C@H](Cc1ccccc1)NC(=O)CNC(=O)CNC(=O)[C@@H](N)Cc1ccc(O)cc1)C(=O)N[C@@H](CCCNC(=N)N)C(=O)N1CCC[C@H]1C(=O)N[C@@H](CCCCNC(CC(C)C)=C1C(=O)CC(C)(C)CC1=O)C(=O)N[C@@H](CC(C)C)C(=O)N[C@@H](CCCCNC(CC(C)C)=C1C(=O)CC(C)(C)CC1=O)C(=O)NCC(=O)N[C@H]1CSSC[C@@H]2NC(=O)[C@H](C(C)C)NC(=O)[C@@H]3CCCN3C(=O)[C@H](CC(C)C)NC(=O)CNC(=O)[C@H](CC(N)=O)NC(=O)[C@H](CCCNC(=N)N)NC(=O)[C@H]([C@@H](C)O)NC(=O)[C@@H]3CSSC[C@@H](C(=O)N[C@@H](CC(N)=O)C(=O)O)NC(=O)[C@H]([C@@H](C)O)NC(=O)CNC(=O)CNC(=O)[C@H](C(C)C)NC(=O)[C@H](CSSC[C@H](NC(=O)[C@H]([C@@H](C)O)NC1=O)C(=O)N[C@@H](CO)C(=O)N[C@@H](Cc1c[nH]c4ccccc14)C(=O)N1CCC[C@H]1C(=O)N[C@@H](C(C)C)C(=O)N3)NC(=O)[C@H]([C@@H](C)O)NC(=O)[C@H](CCC(N)=O)NC(=O)CNC2=O` returned a ring closure, yield over several steps of 11.2%. In data set [3] (87-membered ring), “H-RNGLPVCGQTCVGGTCNTPGCTCSWPVCT-OH (disulfides I-IV, II-V, III-VI)” gave a ring closure, yield over several steps of 24.8%. For `CC[C@H](C)[C@H](NC(=O)[C@H](CCCNC(=N)N)NC(=O)[C@H](CCCNC(=N)N)NC(=O)[C@H](CC(C)C)NC(=O)[C@H](Cc1ccccc1)NC(=O)CNC(=O)CNC(=O)[C@@H](N)Cc1ccc(O)cc1)C(=O)N[C@@H](CCCNC(=N)N)C(=O)N1CCC[C@H]1C(=O)N[C@@H](CCCCNC(CC(C)C)=C1C(=O)CC(C)(C)CC1=O)C(=O)N[C@@H](CC(C)C)C(=O)N[C@@H](CCCCNC(CC(C)C)=C1C(=O)CC(C)(C)CC1=O)C(=O)N[C@H](C(=O)N[C@H]1CSSC[C@@H]2NC(=O)[C@H]([C@@H](C)O)NC(=O)CNC(=O)CNC(=O)[C@H](C(C)C)NC(=O)[C@@H]3CSSC[C@@H](C(=O)N[C@@H](CO)C(=O)O)NC(=O)[C@H]([C@@H](C)O)NC(=O)[C@H](CSSC[C@H](NC(=O)[C@H](C(C)C)NC(=O)[C@@H]4CCCN4C(=O)[C@H](CC(C)C)NC(=O)CNC(=O)[C@H](CC(N)=O)NC(=O)[C@H](CCCNC(=N)N)NC(=O)[C@H]([C@@H](C)O)NC1=O)C(=O)NCC(=O)N[C@@H](CCC(N)=O)C(=O)N[C@@H]([C@@H](C)O)C(=O)N3)NC(=O)CNC(=O)[C@@H]1CCCN1C(=O)[C@H]([C@@H](C)O)NC(=O)[C@H](CC(N)=O)NC2=O)C(C)C`, the ring closure, yield over several steps in data set [3] (120-membered ring) amounted to 7.1%. With `CC[C@H](C)[C@H](NC(=O)[C@H](CCCNC(=N)N)NC(=O)[C@H](CCCNC(=N)N)NC(=O)[C@H](CC(C)C)NC(=O)[C@H](Cc1ccccc1)NC(=O)CNC(=O)CNC(=O)[C@@H](N)Cc1ccc(O)cc1)C(=O)N[C@@H](CCCNC(=N)N)C(=O)N1CCC[C@H]1C(=O)N[C@@H](CCCCNC(CC(C)C)=C1C(=O)CC(C)(C)CC1=O)C(=O)N[C@@H](CC(C)C)C(=O)N[C@@H](CCCCNC(CC(C)C)=C1C(=O)CC(C)(C)CC1=O)C(=O)N[C@H](C(=O)N[C@H]1CSSC[C@@H]2NC(=O)CNC(=O)[C@@H]3CCCN3C(=O)[C@H]([C@@H](C)O)NC(=O)[C@H](CC(N)=O)NC(=O)[C@@H]3CSSC[C@@H](C(=O)N[C@H](C(=O)O)[C@@H](C)O)NC(=O)[C@H](C(C)C)NC(=O)[C@@H]4CCCN4C(=O)[C@H](Cc4c[nH]c5ccccc45)NC(=O)[C@H](CO)NC(=O)[C@H](CSSC[C@H](NC(=O)[C@H]([C@@H](C)O)NC(=O)[C@H](CCC(N)=O)NC(=O)CNC1=O)C(=O)N[C@@H](C(C)C)C(=O)NCC(=O)NCC(=O)N[C@@H]([C@@H](C)O)C(=O)N3)NC(=O)[C@H]([C@@H](C)O)NC2=O)C(C)C`, in data set [3] (111-membered ring), the ring closure, yield over several steps was 17.4%.
